The values below come from ChEMBL document CHEMBL1201862, “PubChem BioAssay data set” (2004).

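These data come from cells grown in 96-well plates and exposed to compound for 48 hours at five concentrations. GI50 = concentration required for 50% inhibition of growth.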 Active and inactive are the calls of the source. Cut-off read from the data, not from the text of the source: active = GI50 up to about 1.1 µM and inactive = higher.

Test systems include SK-MEL-2; SK-MEL-28; SK-MEL-5; CCRF-CEM; T47D; IGROV-1; TK-10; SF-539; SN12C; UACC-257; MOLT-4; HOP-62; UACC-62; OVCAR-3; HT-29; OVCAR-5; UO-31; U-251; RPMI-8226; HOP-92.
Assay in all cases: NCI-60 cell line screen, 48 h

`Cc1ncc([N+](=O)[O-])n1CCNC(=O)Cn1c([N+](=O)[O-])cnc1C`: the GI50 with SK-MEL-2, in the test on SK-MEL-28, in the test on SK-MEL-5, in the test on CCRF-CEM, in the test on T47D and in the test on IGROV-1 was > 100 µM (inactive) throughout. The GI50 with TK-10, in the test with SF-539, in the test with SN12C, in the test on UACC-257, in the test with MOLT-4 and in the test with HOP-62 was > 100 µM (inactive) in each case. Besides, the GI50 in the test on UACC-62, in the test with OVCAR-3, in the test with HT-29, in the test with OVCAR-5, with UO-31 and in the test with U-251 was > 100 µM (inactive) throughout.

Take `CC(C)CC(O)P(=O)(O)O.NC1CCCCC1` (configuration not stated): the GI50 with SK-MEL-2, in the test on SK-MEL-28, in the test with SK-MEL-5, in the test with RPMI-8226, in the test on T47D and in the test with TK-10 was > 100 µM (inactive) throughout. Also, the GI50 in the test with SN12C, with UACC-257, with MOLT-4, in the test on HOP-62, in the test with UACC-62 and in the test with OVCAR-3 was > 100 µM (inactive) in each case. The GI50 with HT-29, in the test on OVCAR-5, in the test with UO-31 and in the test with U-251 was > 100 µM (inactive) throughout.

Turning to `COP(=O)(OC)C(O)CC(C)C` (configuration not stated), the GI50 in the test on SK-MEL-2, in the test with SK-MEL-28, with SK-MEL-5, in the test on RPMI-8226, in the test on T47D and with TK-10 was > 100 µM (inactive) throughout. The GI50 in the test on SN12C, in the test on UACC-257, in the test with MOLT-4, in the test on HOP-62, in the test with UACC-62 and in the test on OVCAR-3 was > 100 µM (inactive) in each case. In addition, the GI50 in the test with HT-29, with OVCAR-5, with UO-31 and in the test on U-251 was > 100 µM (inactive) in each case.

As for `COC(=O)n1c(=O)n(-c2ccccc2)c(=O)n1C(=O)OC`, the GI50 in the test with SK-MEL-2, in the test with SK-MEL-28, in the test with SK-MEL-5, in the test with RPMI-8226, with CCRF-CEM and in the test with T47D was > 100 µM (inactive) each time. The GI50 in the test with IGROV-1, with TK-10, with SF-539, in the test with SN12C, with UACC-257 and with MOLT-4 was > 100 µM (inactive) throughout. The GI50 with UACC-62, in the test on OVCAR-3, in the test on HT-29, with OVCAR-5, with UO-31 and with U-251 was > 100 µM (inactive) in each case.

Turning to `C=CCN(c1cc(OC)c(NC(C)=O)cc1[N+](=O)[O-])S(C)(=O)=O`, the GI50 with SK-MEL-2, in the test on SK-MEL-28, in the test on SK-MEL-5, with RPMI-8226, with CCRF-CEM and in the test with T47D was > 100 µM (inactive) in each case. In addition, the GI50 in the test with IGROV-1, in the test on TK-10, in the test on SN12C, with UACC-257, in the test with MOLT-4 and with HOP-62 was > 100 µM (inactive) throughout. Besides, the GI50 in the test on UACC-62, with OVCAR-3, in the test on OVCAR-5, with UO-31 and with U-251 was > 100 µM (inactive) throughout.

Take `O=C1c2ccccc2CC12CCC1(CC2)OCCO1`: the GI50 was > 100 µM (inactive) with SK-MEL-2; > 100 µM (inactive) with SK-MEL-28; > 10 µM (inactive) in the test with SK-MEL-5; > 100 µM (inactive) with RPMI-8226; > 100 µM (inactive) in the test with CCRF-CEM; > 100 µM (inactive) with T47D. In addition, the GI50 in the test with IGROV-1, with TK-10, in the test on SF-539, in the test with SN12C, with UACC-257 and in the test on MOLT-4 was > 100 µM (inactive) each time. Further, the GI50 in the test with HOP-62, in the test on UACC-62, in the test with HT-29, in the test with OVCAR-5, with UO-31 and with U-251 was > 100 µM (inactive) in each case.

On to `Cc1c(C)c(S(=O)(=O)N(CCCN)OCCCN)c(C)c2c1OC(C)(C)C2`, for which the GI50 in the test with SK-MEL-2 was 9.64 µM (inactive); in the test on SK-MEL-28 it was 83.6 µM (inactive); with SK-MEL-5, 30.8 µM (inactive); in the test on RPMI-8226 it was 42.3 µM (inactive); with CCRF-CEM it was 30 µM (inactive); with T47D, 32.6 µM (inactive). For the same molecule, the GI50 with IGROV-1 was 22.9 µM (inactive); in the test with TK-10, 45.5 µM (inactive); in the test with SN12C, 61.1 µM (inactive); in the test on UACC-257, 34.3 µM (inactive); with MOLT-4, 20.4 µM (inactive); in the test on HOP-62, 35.6 µM (inactive). Moreover, the GI50 in the test with UACC-62 was 51.4 µM (inactive); in the test with OVCAR-3, 21.4 µM (inactive); in the test on HT-29, 45.8 µM (inactive); with OVCAR-5 it was 23.5 µM (inactive); with UO-31, 33.4 µM (inactive); with U-251, 17.3 µM (inactive).

As to `O=c1c(-c2ccccc2)c2oc(c1-c1ccccc1)CSCc1cccc(c1)CSC2`, the GI50 in the test on SK-MEL-2 was > 100 µM (inactive); with SK-MEL-28, 24 µM (inactive); in the test on SK-MEL-5, 54.2 µM (inactive); in the test with RPMI-8226, 27.9 µM (inactive); in the test on CCRF-CEM, 80 µM (inactive); in the test with IGROV-1 it was 26.3 µM (inactive). The GI50 is 87.1 µM (inactive) with TK-10; 22.7 µM (inactive) in the test on SF-539; 49.1 µM (inactive) with SN12C; > 100 µM (inactive) in the test on UACC-257; > 100 µM (inactive) in the test with MOLT-4; 21.9 µM (inactive) in the test with HOP-62. For the same molecule, the GI50 in the test on UACC-62 is 44.1 µM (inactive); in the test with HOP-92, 34.3 µM (inactive); with OVCAR-3 it was 27.8 µM (inactive); with HT-29 it was 51.9 µM (inactive); in the test with OVCAR-5, > 100 µM (inactive); in the test on UO-31, 32.1 µM (inactive). Besides, in the test on U-251, the GI50 was 31 µM (inactive).

As for `CCN(CC)CCOc1ccccc1/C=C/c1noc2ccccc12`, the GI50 in the test on SK-MEL-2 is 0.736 µM (active); with SK-MEL-28 it was 7.73 µM (inactive); with SK-MEL-5, 3.79 µM (inactive); with CCRF-CEM, 15.2 µM (inactive); in the test with T47D it was 12.6 µM (inactive); in the test with IGROV-1, 9.91 µM (inactive). Moreover, the GI50 is 15 µM (inactive) in the test with TK-10; 16 µM (inactive) with SF-539; 11.5 µM (inactive) with SN12C; 3.95 µM (inactive) with UACC-257; 12.1 µM (inactive) in the test with MOLT-4; 14.4 µM (inactive) with HOP-62. The GI50 in the test on UACC-62 was 10.6 µM (inactive); in the test on OVCAR-3 it was 14.7 µM (inactive); in the test on HT-29 it was 2.27 µM (inactive); in the test with OVCAR-5, 12.5 µM (inactive); in the test on UO-31 it was 6.11 µM (inactive).

On to `Cc1ccc(Cc2n[nH]c(=O)n2-c2ccccc2)cc1`, for which the GI50 with SK-MEL-2 was 73.1 µM (inactive); with SK-MEL-28, > 100 µM (inactive); with SK-MEL-5, > 100 µM (inactive); in the test on RPMI-8226, 36.1 µM (inactive); in the test with T47D, 0.652 µM (active); with IGROV-1 it was > 100 µM (inactive). For the same molecule, the GI50 in the test with TK-10 is > 100 µM (inactive); with SF-539, > 100 µM (inactive); in the test with SN12C it was > 100 µM (inactive); in the test on UACC-257, > 100 µM (inactive); in the test on MOLT-4 it was > 100 µM (inactive); in the test on UACC-62, 55.3 µM (inactive). For the same molecule, the GI50 with HT-29 is > 100 µM (inactive); in the test on OVCAR-5, > 100 µM (inactive); in the test with UO-31 it was 86.7 µM (inactive); with U-251, > 100 µM (inactive).

As for `NC1=NCC(c2ccccn2)C1c1ccc(F)cc1` (configuration not stated), the GI50 in the test with SK-MEL-2, in the test on SK-MEL-28, in the test on SK-MEL-5, in the test on RPMI-8226, with CCRF-CEM and in the test on IGROV-1 was > 100 µM (inactive) each time. Further, the GI50 in the test with TK-10, in the test with SF-539, in the test with SN12C, with UACC-257, in the test on MOLT-4 and in the test on HOP-62 was > 100 µM (inactive) in each case. The GI50 in the test with UACC-62, in the test on HOP-92, with OVCAR-3, with HT-29, in the test on OVCAR-5 and with UO-31 was > 100 µM (inactive) throughout. In the test on U-251, the GI50 was > 100 µM (inactive).
